This note sets out measurements from publication doi:10.1101/2023.11.24.568596v1 (biorxiv, 2023).

Holding throughout (conditions): binder
The target in experiment [1] is BIKE (Homo sapiens, UniProt Q9NSY1).
The target of experiment [2] is T1, CASK (Homo sapiens, UniProt O14936).
T1 sequence (O14936 1-926): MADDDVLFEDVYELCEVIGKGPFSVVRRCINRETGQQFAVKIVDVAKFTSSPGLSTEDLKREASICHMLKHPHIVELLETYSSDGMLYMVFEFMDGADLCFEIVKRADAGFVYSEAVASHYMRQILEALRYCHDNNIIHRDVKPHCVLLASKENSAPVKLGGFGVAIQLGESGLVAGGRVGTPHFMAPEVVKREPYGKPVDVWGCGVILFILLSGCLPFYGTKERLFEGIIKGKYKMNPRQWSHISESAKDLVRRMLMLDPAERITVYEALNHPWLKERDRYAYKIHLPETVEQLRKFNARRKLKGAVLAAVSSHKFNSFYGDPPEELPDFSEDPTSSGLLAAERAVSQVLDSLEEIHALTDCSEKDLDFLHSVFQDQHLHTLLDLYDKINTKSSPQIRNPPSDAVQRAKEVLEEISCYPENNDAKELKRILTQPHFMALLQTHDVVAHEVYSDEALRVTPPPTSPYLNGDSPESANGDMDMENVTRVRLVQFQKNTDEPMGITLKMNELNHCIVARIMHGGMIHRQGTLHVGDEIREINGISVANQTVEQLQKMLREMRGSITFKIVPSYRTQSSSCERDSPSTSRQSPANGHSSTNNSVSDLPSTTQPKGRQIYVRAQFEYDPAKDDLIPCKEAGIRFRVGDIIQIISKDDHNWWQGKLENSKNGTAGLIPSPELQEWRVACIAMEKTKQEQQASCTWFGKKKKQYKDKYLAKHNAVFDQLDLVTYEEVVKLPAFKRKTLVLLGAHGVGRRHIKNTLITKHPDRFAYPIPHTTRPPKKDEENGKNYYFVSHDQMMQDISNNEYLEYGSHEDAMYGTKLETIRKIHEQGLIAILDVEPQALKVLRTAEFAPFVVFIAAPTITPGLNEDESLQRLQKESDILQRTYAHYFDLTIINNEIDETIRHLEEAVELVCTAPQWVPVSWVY

For experiment [3], the target named is CaMK1d (Homo sapiens, UniProt Q8IU85).
Sequence of CaMK1d (Q8IU85 whole entry): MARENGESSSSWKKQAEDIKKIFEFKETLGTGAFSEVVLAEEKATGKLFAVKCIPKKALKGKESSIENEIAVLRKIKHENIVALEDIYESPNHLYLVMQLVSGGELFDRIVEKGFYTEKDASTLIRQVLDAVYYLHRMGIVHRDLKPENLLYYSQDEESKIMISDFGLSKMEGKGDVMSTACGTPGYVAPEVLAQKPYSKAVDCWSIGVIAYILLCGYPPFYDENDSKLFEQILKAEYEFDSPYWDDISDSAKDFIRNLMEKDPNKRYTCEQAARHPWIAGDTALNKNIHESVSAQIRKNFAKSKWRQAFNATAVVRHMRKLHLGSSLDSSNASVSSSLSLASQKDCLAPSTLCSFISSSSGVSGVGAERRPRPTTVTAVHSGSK
Experiment [4] addresses T2, DYRK2 (Homo sapiens, UniProt Q92630).
T2 sequence (Q92630 1-601): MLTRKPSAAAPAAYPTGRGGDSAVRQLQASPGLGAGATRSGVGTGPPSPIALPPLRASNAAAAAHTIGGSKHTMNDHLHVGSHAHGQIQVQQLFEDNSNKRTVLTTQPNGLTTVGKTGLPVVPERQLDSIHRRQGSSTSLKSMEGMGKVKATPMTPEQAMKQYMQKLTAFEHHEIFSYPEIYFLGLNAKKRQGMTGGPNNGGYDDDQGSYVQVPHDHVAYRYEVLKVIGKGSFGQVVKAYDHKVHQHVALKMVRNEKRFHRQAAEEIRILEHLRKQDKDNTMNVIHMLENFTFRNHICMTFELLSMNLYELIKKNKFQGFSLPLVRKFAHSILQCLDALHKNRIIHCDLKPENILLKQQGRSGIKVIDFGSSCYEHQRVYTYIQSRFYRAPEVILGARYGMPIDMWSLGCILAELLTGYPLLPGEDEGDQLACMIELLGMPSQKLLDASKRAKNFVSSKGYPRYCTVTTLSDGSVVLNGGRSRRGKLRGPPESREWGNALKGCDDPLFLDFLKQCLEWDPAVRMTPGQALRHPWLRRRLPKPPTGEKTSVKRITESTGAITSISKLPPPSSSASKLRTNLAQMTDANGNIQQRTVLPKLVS

Experiment [5] has as its target Erk3 (Homo sapiens, UniProt Q16659).
The target in experiment [6] is PIM1 (Homo sapiens, UniProt P11309).
Sequence of PIM1 (P11309 whole entry): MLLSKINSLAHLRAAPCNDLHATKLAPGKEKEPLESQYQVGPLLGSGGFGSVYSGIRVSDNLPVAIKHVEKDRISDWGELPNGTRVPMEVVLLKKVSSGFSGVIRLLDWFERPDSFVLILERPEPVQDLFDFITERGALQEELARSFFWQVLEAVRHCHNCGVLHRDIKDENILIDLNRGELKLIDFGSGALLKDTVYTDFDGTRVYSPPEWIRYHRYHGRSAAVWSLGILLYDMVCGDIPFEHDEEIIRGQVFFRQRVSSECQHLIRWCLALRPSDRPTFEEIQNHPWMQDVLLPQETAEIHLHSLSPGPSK
The target in experiment [7] is STLK3 (Homo sapiens, UniProt Q9UEW8).
The target of experiment [8] is T3, TLK1 (Homo sapiens, UniProt Q9UKI8).
T3 sequence (Q9UKI8 1-766): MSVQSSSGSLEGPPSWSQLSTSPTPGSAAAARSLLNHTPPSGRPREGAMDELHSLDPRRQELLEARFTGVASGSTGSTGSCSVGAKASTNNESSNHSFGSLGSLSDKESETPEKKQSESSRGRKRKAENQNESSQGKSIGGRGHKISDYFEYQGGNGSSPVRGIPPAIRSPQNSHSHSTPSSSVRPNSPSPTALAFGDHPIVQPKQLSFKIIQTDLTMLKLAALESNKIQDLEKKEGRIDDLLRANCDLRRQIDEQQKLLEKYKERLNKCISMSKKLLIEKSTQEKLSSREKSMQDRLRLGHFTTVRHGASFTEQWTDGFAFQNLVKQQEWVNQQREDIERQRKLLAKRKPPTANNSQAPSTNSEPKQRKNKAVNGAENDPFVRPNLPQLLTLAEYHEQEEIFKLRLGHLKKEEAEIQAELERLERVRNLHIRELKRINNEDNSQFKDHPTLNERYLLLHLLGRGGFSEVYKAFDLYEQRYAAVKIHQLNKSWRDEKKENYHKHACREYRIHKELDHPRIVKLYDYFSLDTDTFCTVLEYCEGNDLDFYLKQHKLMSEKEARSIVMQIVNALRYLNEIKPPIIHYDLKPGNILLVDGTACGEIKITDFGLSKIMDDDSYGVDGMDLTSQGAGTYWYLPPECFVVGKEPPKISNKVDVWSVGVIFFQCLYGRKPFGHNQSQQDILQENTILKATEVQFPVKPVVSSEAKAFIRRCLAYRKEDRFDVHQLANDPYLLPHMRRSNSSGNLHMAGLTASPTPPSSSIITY

For experiment [9], the target named is Wnk1 (Homo sapiens, UniProt Q9H4A3).
Sequence of Wnk1 (Q9H4A3 whole entry): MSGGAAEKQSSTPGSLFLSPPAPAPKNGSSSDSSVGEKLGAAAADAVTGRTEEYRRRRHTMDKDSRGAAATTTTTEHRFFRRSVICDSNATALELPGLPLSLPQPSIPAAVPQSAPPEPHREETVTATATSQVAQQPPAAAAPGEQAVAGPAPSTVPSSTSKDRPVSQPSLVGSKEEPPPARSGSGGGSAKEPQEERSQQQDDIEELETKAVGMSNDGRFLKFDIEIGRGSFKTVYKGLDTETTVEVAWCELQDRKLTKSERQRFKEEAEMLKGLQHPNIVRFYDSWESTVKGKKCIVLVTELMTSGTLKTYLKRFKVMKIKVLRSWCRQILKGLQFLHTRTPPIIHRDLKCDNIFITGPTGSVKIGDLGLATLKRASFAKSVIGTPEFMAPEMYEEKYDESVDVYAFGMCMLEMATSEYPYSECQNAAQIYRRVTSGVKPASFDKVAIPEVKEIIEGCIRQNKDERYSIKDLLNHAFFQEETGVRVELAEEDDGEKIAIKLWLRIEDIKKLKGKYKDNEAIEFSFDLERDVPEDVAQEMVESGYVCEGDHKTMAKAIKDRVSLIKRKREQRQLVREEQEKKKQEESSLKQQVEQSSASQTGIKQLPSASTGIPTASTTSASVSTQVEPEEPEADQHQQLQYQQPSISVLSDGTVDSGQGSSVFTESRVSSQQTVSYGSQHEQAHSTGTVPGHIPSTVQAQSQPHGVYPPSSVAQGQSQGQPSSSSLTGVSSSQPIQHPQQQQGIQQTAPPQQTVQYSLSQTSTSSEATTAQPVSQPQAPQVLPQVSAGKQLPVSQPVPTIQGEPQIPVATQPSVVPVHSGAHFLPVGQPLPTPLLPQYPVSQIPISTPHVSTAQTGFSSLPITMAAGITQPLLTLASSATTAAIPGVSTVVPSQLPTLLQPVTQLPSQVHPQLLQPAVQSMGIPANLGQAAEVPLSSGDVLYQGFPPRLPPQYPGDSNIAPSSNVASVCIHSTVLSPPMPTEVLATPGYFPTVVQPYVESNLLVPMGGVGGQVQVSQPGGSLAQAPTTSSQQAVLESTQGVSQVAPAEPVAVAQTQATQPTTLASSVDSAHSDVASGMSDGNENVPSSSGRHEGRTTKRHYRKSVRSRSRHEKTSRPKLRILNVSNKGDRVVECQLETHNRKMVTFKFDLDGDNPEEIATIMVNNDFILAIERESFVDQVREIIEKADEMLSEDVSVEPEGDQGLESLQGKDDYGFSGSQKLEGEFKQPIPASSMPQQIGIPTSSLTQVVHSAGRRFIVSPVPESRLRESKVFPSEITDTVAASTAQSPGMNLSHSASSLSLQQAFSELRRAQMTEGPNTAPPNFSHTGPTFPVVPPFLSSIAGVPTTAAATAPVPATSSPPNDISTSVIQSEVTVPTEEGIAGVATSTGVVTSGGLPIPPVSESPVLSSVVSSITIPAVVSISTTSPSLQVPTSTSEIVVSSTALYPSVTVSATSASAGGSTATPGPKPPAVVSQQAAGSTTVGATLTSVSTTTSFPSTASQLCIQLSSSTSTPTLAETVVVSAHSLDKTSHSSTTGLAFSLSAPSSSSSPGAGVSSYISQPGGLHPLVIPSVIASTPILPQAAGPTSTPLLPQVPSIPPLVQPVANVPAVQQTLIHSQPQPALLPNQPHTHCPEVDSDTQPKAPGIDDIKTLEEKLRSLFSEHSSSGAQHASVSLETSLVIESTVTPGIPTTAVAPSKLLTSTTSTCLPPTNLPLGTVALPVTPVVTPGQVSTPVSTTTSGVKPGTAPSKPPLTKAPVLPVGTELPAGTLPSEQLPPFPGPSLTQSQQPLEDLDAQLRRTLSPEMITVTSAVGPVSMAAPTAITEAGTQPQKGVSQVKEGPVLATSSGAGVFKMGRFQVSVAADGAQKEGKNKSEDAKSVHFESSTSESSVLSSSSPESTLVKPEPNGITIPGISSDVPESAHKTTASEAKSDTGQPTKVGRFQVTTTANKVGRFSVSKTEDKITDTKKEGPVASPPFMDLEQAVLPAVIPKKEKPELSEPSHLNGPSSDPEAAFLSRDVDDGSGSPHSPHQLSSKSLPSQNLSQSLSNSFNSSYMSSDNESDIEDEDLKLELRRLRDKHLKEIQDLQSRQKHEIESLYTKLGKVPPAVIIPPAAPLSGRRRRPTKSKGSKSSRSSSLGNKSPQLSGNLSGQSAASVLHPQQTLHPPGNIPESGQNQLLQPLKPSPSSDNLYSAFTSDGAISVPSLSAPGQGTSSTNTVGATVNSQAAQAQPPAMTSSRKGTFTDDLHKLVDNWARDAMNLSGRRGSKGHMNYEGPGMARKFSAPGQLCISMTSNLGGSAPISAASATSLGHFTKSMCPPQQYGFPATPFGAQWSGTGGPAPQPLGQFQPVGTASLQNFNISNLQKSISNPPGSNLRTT

Sequence of Erk3 (Q16659 whole entry): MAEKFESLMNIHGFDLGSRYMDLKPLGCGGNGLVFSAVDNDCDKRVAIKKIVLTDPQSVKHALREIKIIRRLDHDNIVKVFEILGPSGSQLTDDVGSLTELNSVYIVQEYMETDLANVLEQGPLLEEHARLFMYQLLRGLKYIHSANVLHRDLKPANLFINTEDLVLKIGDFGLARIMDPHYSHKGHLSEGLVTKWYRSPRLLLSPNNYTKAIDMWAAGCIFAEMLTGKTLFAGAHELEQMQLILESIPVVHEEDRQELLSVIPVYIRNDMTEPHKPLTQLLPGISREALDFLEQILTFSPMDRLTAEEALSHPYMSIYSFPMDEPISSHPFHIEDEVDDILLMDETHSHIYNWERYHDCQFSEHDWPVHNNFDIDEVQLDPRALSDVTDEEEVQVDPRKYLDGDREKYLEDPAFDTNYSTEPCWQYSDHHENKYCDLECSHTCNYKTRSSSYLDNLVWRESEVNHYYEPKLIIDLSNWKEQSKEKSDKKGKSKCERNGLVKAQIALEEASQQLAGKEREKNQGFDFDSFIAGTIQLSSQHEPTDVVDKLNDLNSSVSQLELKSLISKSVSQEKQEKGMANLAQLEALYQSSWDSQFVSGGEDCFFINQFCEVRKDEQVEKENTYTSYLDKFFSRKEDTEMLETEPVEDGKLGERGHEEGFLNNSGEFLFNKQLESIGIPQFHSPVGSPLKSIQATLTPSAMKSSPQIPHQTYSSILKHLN
Sequence of BIKE (Q9NSY1 whole entry): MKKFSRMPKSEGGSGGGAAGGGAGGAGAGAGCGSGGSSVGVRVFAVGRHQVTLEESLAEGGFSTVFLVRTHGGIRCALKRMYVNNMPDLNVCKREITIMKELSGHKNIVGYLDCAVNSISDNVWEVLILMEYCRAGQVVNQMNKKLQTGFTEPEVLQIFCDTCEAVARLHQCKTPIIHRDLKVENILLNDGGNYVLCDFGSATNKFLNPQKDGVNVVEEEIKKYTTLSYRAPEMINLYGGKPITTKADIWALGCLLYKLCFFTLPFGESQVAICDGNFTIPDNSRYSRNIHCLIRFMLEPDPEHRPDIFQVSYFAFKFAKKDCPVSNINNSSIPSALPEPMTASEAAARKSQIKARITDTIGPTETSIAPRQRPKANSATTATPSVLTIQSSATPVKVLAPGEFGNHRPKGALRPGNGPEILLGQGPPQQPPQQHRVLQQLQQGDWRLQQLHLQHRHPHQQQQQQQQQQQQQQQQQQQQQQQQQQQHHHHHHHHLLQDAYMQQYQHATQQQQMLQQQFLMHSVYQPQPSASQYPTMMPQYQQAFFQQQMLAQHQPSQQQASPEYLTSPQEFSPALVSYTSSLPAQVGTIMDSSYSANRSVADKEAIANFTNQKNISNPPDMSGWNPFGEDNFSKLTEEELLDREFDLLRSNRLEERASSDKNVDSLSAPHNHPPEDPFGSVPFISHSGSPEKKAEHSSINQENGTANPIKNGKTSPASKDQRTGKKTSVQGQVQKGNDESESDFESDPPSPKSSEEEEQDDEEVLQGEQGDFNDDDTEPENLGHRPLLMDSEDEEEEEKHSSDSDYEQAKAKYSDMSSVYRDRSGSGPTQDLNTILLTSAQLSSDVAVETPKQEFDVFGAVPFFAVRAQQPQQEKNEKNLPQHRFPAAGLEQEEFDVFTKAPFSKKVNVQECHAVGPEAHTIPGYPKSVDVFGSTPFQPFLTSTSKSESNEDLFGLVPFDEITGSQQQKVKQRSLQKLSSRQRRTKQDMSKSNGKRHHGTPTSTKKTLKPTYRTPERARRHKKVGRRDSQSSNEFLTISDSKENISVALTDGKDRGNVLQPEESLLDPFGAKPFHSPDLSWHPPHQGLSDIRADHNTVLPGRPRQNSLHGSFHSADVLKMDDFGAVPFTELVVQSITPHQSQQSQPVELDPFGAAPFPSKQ

As for `COc1ccc(O)c(Nc2ncc3cc(-c4ccc(-c5cccc(C)n5)cc4Cl)c(=O)n(CCCCN)c3n2)c1` [compound 34, 8-(4-Aminobutyl)-6-(2-chloro-4-(6-methylpyridin-2-yl)phenyl)-2-((2-hydroxy-5-methoxy-phenyl)amino)pyrido[2,3-d]pyrimidin-7(8H)-one], the “dTm 34” value in [1] is 0.8 °C; in experiment [2] it was -0.2 °C; in experiment [3], 3.9 °C; in [4], 0.0 °C; in experiment [5], 0.7 °C; in [6] it was 2.7 °C. Also, the results for the “dTm 34” value in [7], in experiment [8] and in [9] were 11.0 °C, -1.1 °C and 0.8 °C, respectively.
Regarding `Cc1cccc(-c2ccc(-c3cc4cnc(Nc5ccc(F)c(CO)c5)nc4n(CCCCN)c3=O)c(Cl)c2)n1` [compound 33, 8-(4-Aminobutyl)-6-(2-chloro-4-(6-methylpyridin-2-yl)phenyl)-2-((4-fluoro-3-(hydroxymethyl)phenyl)amino)pyrido[2,3-d]pyrimidin-7(8H)-one], the “dTm 33” value in experiment [1] is 7.2 °C; in experiment [2] it was 0.2 °C; in experiment [3], 5.9 °C; in experiment [4] it was -1.0 °C; in experiment [5] it was 0.9 °C; in experiment [6] it was 3.3 °C. For the same compound, the “dTm 33” value in [7] was 16.8 °C; in [8] it was -0.8 °C; in experiment [9], 3.3 °C.
As for `COc1cc(N2CCOCC2)ccc1Nc1ncc2cc(-c3ccc(-c4cccc(C)n4)cc3Cl)c(=O)n(CCCCN)c2n1` [compound 35, 8-(4-Aminobutyl)-6-(2-chloro-4-(6-methylpyridin-2-yl)phenyl)-2-((2-methoxy-4-morpholino-phenyl)amino)pyrido[2,3-d]pyrimidin-7(8H)-one], the “dTm 35” value is 1.3 °C in experiment [1]; 0.0 °C in experiment [2]; 5.8 °C in experiment [3]; -0.6 °C in [4]; 0.6 °C in experiment [5]; -0.9 °C in [6]. The “dTm 35” value in experiment [7] is 13.4 °C; in experiment [8], -2.5 °C; in experiment [9], 2.7 °C.
For `COc1cc(N2CCN(C)CC2)ccc1Nc1ncc2cc(-c3ccc(-c4cccc(C)n4)cc3Cl)c(=O)n(CCCCN)c2n1` [compound 36, 8-(4-Aminobutyl)-6-(2-chloro-4-(6-methylpyridin-2-yl)phenyl)-2-((2-methoxy-4-(4-methylpiperazin-1-yl)phenyl)amino)pyrido[2,3-d]pyrimidin-7(8H)-one], the “dTm 36” value was 1.0 °C in experiment [1]; -0.4 °C in [2]; 5.6 °C in experiment [3]; -0.4 °C in experiment [4]; 0.5 °C in [5]; -0.1 °C in experiment [6]. The entries for the “dTm 36” value in [7], in experiment [8] and in experiment [9] were 9.3 °C, -1.9 °C and 1.5 °C, respectively.
